Measurements reported in PubChem BioAssay (NCI).
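How tested: cells in 96-well plates exposed to compound for 48 hours at five concentrations. GI50 marks 50% less growth. Definition used: TGI = concentration required for complete inhibition of growth.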

test system: MDA-MB-435; experiment: growth of human tumour cells (NCI), 48 h

| Structure (SMILES) | GI50 | TGI |
| --- | --- | --- |
| O=C(Oc1cccnc1)c1ccsc1Nc1ccnc(C(F)(F)F)c1 | 2.88 µM | 11.8 µM |
| BrCc1ccc(CBr)cc1 | 5.56 µM | 15.6 µM |
| Cc1cccc(NC(=O)c2sc3nc4c(cc3c2N)CN(Cc2ccccc2)CC4)c1C | 0.065 µM | 0.181 µM |
| CC1=CC(=O)C(O)C2(C)C1CC(O)C13COC4(C)C(OC(=O)C41)C(O)C23 (stereo unspecified) | 6.86 µM | 43 µM |

test system: SNB-19 CNS; experiment: growth of human tumour cells (NCI), 48 h

| Structure (SMILES) | GI50 | TGI |
| --- | --- | --- |
| O=C(Oc1cccnc1)c1ccsc1Nc1ccnc(C(F)(F)F)c1 | 20.7 µM | > 100 µM |
| BrCc1ccc(CBr)cc1 | 0.528 µM | 25.8 µM |
| Cc1cccc(NC(=O)c2sc3nc4c(cc3c2N)CN(Cc2ccccc2)CC4)c1C | 0.283 µM | > 50 µM |
| CC1=CC(=O)C(O)C2(C)C1CC(O)C13COC4(C)C(OC(=O)C41)C(O)C23 (stereo unspecified) | 7.94 µM | > 100 µM |

test system: SK-MEL-2 melanoma; experiment: growth of human tumour cells (NCI), 48 h

| Structure (SMILES) | GI50 | TGI |
| --- | --- | --- |
| O=C(Oc1cccnc1)c1ccsc1Nc1ccnc(C(F)(F)F)c1 | 4.19 µM | > 100 µM |
| Cc1cccc(NC(=O)c2sc3nc4c(cc3c2N)CN(Cc2ccccc2)CC4)c1C | 0.328 µM | 25.8 µM |
| CC1=CC(=O)C(O)C2(C)C1CC(O)C13COC4(C)C(OC(=O)C41)C(O)C23 (stereo unspecified) | 6.36 µM | 29.5 µM |

test system: UACC-62 melanoma; experiment: growth of human tumour cells (NCI), 48 h

| Structure (SMILES) | GI50 | TGI |
| --- | --- | --- |
| O=C(Oc1cccnc1)c1ccsc1Nc1ccnc(C(F)(F)F)c1 | 44.8 µM | > 100 µM |
| BrCc1ccc(CBr)cc1 | 5.13 µM | 22.3 µM |
| Cc1cccc(NC(=O)c2sc3nc4c(cc3c2N)CN(Cc2ccccc2)CC4)c1C | 0.274 µM | > 50 µM |
| CC1=CC(=O)C(O)C2(C)C1CC(O)C13COC4(C)C(OC(=O)C41)C(O)C23 (stereo unspecified) | 8.02 µM | 32.3 µM |

test system: EKVX NSCLC; experiment: growth of human tumour cells (NCI), 48 h

| Structure (SMILES) | GI50 | TGI |
| --- | --- | --- |
| O=C(Oc1cccnc1)c1ccsc1Nc1ccnc(C(F)(F)F)c1 | 34.2 µM | > 100 µM |
| BrCc1ccc(CBr)cc1 | 10.5 µM | 25.7 µM |
| Cc1cccc(NC(=O)c2sc3nc4c(cc3c2N)CN(Cc2ccccc2)CC4)c1C | 0.45 µM | > 50 µM |
| CC1=CC(=O)C(O)C2(C)C1CC(O)C13COC4(C)C(OC(=O)C41)C(O)C23 (stereo unspecified) | 11.9 µM | 41.6 µM |

test system: HCT-15 colon; experiment: growth of human tumour cells (NCI), 48 h

| Structure (SMILES) | GI50 | TGI |
| --- | --- | --- |
| O=C(Oc1cccnc1)c1ccsc1Nc1ccnc(C(F)(F)F)c1 | 3.49 µM | > 100 µM |
| BrCc1ccc(CBr)cc1 | 5.44 µM | > 75.2 µM |
| Cc1cccc(NC(=O)c2sc3nc4c(cc3c2N)CN(Cc2ccccc2)CC4)c1C | 0.176 µM | > 50 µM |
| CC1=CC(=O)C(O)C2(C)C1CC(O)C13COC4(C)C(OC(=O)C41)C(O)C23 (stereo unspecified) | 4.47 µM | 23.4 µM |

test system: RXF 393 renal; experiment: growth of human tumour cells (NCI), 48 h

| Structure (SMILES) | GI50 | TGI |
| --- | --- | --- |
| O=C(Oc1cccnc1)c1ccsc1Nc1ccnc(C(F)(F)F)c1 | 6.26 µM | 34.8 µM |
| BrCc1ccc(CBr)cc1 | 5.61 µM | 16.2 µM |
| Cc1cccc(NC(=O)c2sc3nc4c(cc3c2N)CN(Cc2ccccc2)CC4)c1C | 0.133 µM | 2.11 µM |
| CC1=CC(=O)C(O)C2(C)C1CC(O)C13COC4(C)C(OC(=O)C41)C(O)C23 (stereo unspecified) | 1.36 µM | 6.98 µM |

test system: NCI/ADR-RES ovarian; experiment: growth of human tumour cells (NCI), 48 h

| Structure (SMILES) | GI50 | TGI |
| --- | --- | --- |
| O=C(Oc1cccnc1)c1ccsc1Nc1ccnc(C(F)(F)F)c1 | 4.62 µM | > 100 µM |
| BrCc1ccc(CBr)cc1 | 6.95 µM | > 21.1 µM |
| Cc1cccc(NC(=O)c2sc3nc4c(cc3c2N)CN(Cc2ccccc2)CC4)c1C | 0.133 µM | > 50 µM |
| CC1=CC(=O)C(O)C2(C)C1CC(O)C13COC4(C)C(OC(=O)C41)C(O)C23 (stereo unspecified) | 18.2 µM | 61.3 µM |

test system: RPMI-8226 leukemia; experiment: growth of human tumour cells (NCI), 48 h

| Structure (SMILES) | GI50 | TGI |
| --- | --- | --- |
| O=C(Oc1cccnc1)c1ccsc1Nc1ccnc(C(F)(F)F)c1 | 6.45 µM | 51.8 µM |
| BrCc1ccc(CBr)cc1 | 3.1 µM | 13.3 µM |
| Cc1cccc(NC(=O)c2sc3nc4c(cc3c2N)CN(Cc2ccccc2)CC4)c1C | 0.198 µM | > 50 µM |
| CC1=CC(=O)C(O)C2(C)C1CC(O)C13COC4(C)C(OC(=O)C41)C(O)C23 (stereo unspecified) | 17.3 µM | > 100 µM |

test system: NCI-H23 lung; experiment: growth of human tumour cells (NCI), 48 h

| Structure (SMILES) | GI50 | TGI |
| --- | --- | --- |
| O=C(Oc1cccnc1)c1ccsc1Nc1ccnc(C(F)(F)F)c1 | 4.07 µM | > 100 µM |
| BrCc1ccc(CBr)cc1 | 10.7 µM | > 35.4 µM |
| Cc1cccc(NC(=O)c2sc3nc4c(cc3c2N)CN(Cc2ccccc2)CC4)c1C | 0.256 µM | > 50 µM |
| CC1=CC(=O)C(O)C2(C)C1CC(O)C13COC4(C)C(OC(=O)C41)C(O)C23 (stereo unspecified) | 4.8 µM | 18.6 µM |

test system: DU-145 prostate; experiment: growth of human tumour cells (NCI), 48 h

| Structure (SMILES) | GI50 | TGI |
| --- | --- | --- |
| O=C(Oc1cccnc1)c1ccsc1Nc1ccnc(C(F)(F)F)c1 | 24.6 µM | > 100 µM |
| BrCc1ccc(CBr)cc1 | 3.38 µM | 12.9 µM |
| Cc1cccc(NC(=O)c2sc3nc4c(cc3c2N)CN(Cc2ccccc2)CC4)c1C | 0.201 µM | > 50 µM |
| CC1=CC(=O)C(O)C2(C)C1CC(O)C13COC4(C)C(OC(=O)C41)C(O)C23 (stereo unspecified) | 4.36 µM | 31.6 µM |

test system: BT-549 breast; experiment: growth of human tumour cells (NCI), 48 h

| Structure (SMILES) | GI50 | TGI |
| --- | --- | --- |
| O=C(Oc1cccnc1)c1ccsc1Nc1ccnc(C(F)(F)F)c1 | 5.36 µM | > 100 µM |
| BrCc1ccc(CBr)cc1 |  | 3.8 µM |
| Cc1cccc(NC(=O)c2sc3nc4c(cc3c2N)CN(Cc2ccccc2)CC4)c1C | 0.304 µM | > 50 µM |
| CC1=CC(=O)C(O)C2(C)C1CC(O)C13COC4(C)C(OC(=O)C41)C(O)C23 (stereo unspecified) | 11 µM | 43.4 µM |

test system: NCI-H460 lung; experiment: growth of human tumour cells (NCI), 48 h

| Structure (SMILES) | GI50 | TGI |
| --- | --- | --- |
| O=C(Oc1cccnc1)c1ccsc1Nc1ccnc(C(F)(F)F)c1 | 17.7 µM | > 100 µM |
| BrCc1ccc(CBr)cc1 | 4.84 µM | 17.4 µM |
| Cc1cccc(NC(=O)c2sc3nc4c(cc3c2N)CN(Cc2ccccc2)CC4)c1C | 0.196 µM | > 50 µM |
| CC1=CC(=O)C(O)C2(C)C1CC(O)C13COC4(C)C(OC(=O)C41)C(O)C23 (stereo unspecified) | 5.2 µM | 62.7 µM |

test system: OVCAR-5 ovarian; experiment: growth of human tumour cells (NCI), 48 h

| Structure (SMILES) | GI50 | TGI |
| --- | --- | --- |
| O=C(Oc1cccnc1)c1ccsc1Nc1ccnc(C(F)(F)F)c1 | 4.67 µM | > 100 µM |
| BrCc1ccc(CBr)cc1 | 9.61 µM | 29.1 µM |
| Cc1cccc(NC(=O)c2sc3nc4c(cc3c2N)CN(Cc2ccccc2)CC4)c1C | 0.484 µM | > 50 µM |
| CC1=CC(=O)C(O)C2(C)C1CC(O)C13COC4(C)C(OC(=O)C41)C(O)C23 (stereo unspecified) | 20.5 µM | 78.3 µM |

test system: UACC-257 melanoma; experiment: growth of human tumour cells (NCI), 48 h

| Structure (SMILES) | GI50 | TGI |
| --- | --- | --- |
| O=C(Oc1cccnc1)c1ccsc1Nc1ccnc(C(F)(F)F)c1 | 10.5 µM | 23.4 µM |
